pIC50: −log10 of the molar value.
Target: T1, PAFR (Homo sapiens, UniProt P25105)
Test: not given
Conditions: PAFR binding, Miyazawa et al.; cited from earlier work
Target sequence in this assay (P25105 whole entry, species assumed): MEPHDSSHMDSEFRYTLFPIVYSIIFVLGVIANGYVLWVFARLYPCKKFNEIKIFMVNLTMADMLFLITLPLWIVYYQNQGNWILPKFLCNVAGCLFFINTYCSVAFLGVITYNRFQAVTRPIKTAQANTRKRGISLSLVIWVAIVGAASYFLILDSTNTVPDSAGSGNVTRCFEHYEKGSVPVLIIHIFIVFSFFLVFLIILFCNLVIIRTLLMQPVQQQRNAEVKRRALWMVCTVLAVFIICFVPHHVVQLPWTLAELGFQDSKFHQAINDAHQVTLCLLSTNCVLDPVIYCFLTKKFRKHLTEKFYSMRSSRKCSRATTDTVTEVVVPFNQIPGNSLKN
In the case of `C#CCCOC(=O)N1CCc2c(sc3c2C(c2ccccc2Cl)=NC(C)c2nnc(C)n2-3)C1` (racemic) [compound 22 of Miyazawa et al. racemate], the pIC50 is given as 8.82. In the case of `C#CCCOC(=O)N1CCc2c(sc3c2C(c2ccccc2Cl)=NC(CC)c2nnc(C)n2-3)C1` (racemic) [compound 24 of Miyazawa et al. racemate], the pIC50 is listed as 7.66. For `C#CCCOC(=O)N1CCc2c(sc3c2C(c2ccccc2Cl)=NC(C)c2nnc(C)n2-3)C1` (single isomer, unassigned) [compound 22 of Miyazawa et al. (+) isomer], the pIC50 is listed as 9.47. In the case of `C#CCCOC(=O)N1CCc2c(sc3c2C(c2ccccc2Cl)=NC(C)c2nnc(C)n2-3)C1` (single isomer, unassigned) [compound 22 of Miyazawa et al. (−) isomer], the pIC50 is given as 7.09.

Target: T1, PAFR
Test: cellular HTRF IP1 assay: inhibition of PAFR activation by PAF C-16 ligand (endpoint assay)
Type: cell-based
Set-up: expressed in transfected cells; host or cells: HEK293
Conditions: HEK293 cells overexpressing human PAFR; PAF ligand 11 nM; Table 2
Outline: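 HEK293 cells overexpressing human PAFR were preincubated with compound (1% DMSO) 90 min at 37°C, then challenged with 11 nM PAF C-16 for 60 min in HBSS/20 mM HEPES pH 7.4/50 mM LiCl/0.1% BSA. IP1 accumulation read by HTRF (665/620 nm emission).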
Target sequence in this assay (P25105 whole entry): as the sequence (P25105 whole entry, species assumed) above
In the case of `Cc1nnc2n1-c1sc3c(c1C(c1ccccc1Cl)=NC21CC1)C[C@H](C(=O)N(C)[C@H]1CCN(S(C)(=O)=O)C1)C3` [Example 111, (13′S)-9′-(2-chlorophenyl)-N-[(3S)-1-methanesulfonylpyrrolidin-3-yl]-N,3′-dimethyl-16′-thia-2′,4′,5′,8′-tetraazaspiro[cyclopropane-1,7′-tetracyclo[8.6.0.0^2,^6.0^11,15]hexadecane]-1′(10′),3′,5′,8′,11′(15′)-pentaene-13′-carboxamide], the pIC50 was 7.62. `Cc1nnc2n1-c1sc3c(c1C(c1ccccc1Cl)=NC21CC1)C[C@H](C(=O)N(C)[C@H]1CC[C@H](O)CC1)C3` [Example 112] gave a pIC50 of 7.66. `Cc1nnc2n1-c1sc3c(c1C(c1ccccc1Cl)=NC21CC1)C[C@H](C(=O)N[C@H]1C[C@H](S(C)(=O)=O)C1)C3` [Example 113] showed a pIC50 of 7.55. `CCCN(C(=O)[C@@H]1Cc2sc3c(c2C1)C(c1ccccc1Cl)=NC1(CC1)c1nnc(C)n1-3)C1CCOCC1` [Example 115, (13′S)-9′-(2-chlorophenyl)-3′-methyl-N-(oxan-4-yl)-N-propyl-16′-thia-2′,4′,5′,8′-tetraazaspiro-[cyclopropane-1,7′-tetracyclo[8.6.0.0^2,6.0^11,15]hexadecane]-1′(10′),3′,5′,8′,11′(15′)-pentaene-13′-carboxamide] gave a pIC50 of 7.60. With `Cc1nnc2n1-c1sc3c(c1C(c1ccccc1Cl)=NC21CC1)C[C@H](C(=O)N[C@H]1COCC(F)(F)C1)C3` [Example 116] the pIC50 was 8.41. Work on `Cc1nnc2n1-c1sc3c(c1C(c1ccccc1Cl)=NC21CC1)C[C@H](C(=O)NC1(c2cncnc2)CC1)C3` [Example 117] yielded a pIC50 of 7.55. With `Cc1nnc2n1-c1sc3c(c1C(c1ccccc1Cl)=NC21CC1)C[C@H](C(=O)NC1CCC(F)(F)CC1)C3` [Example 118] the pIC50 was 8.55. Molecule `CCc1nnc2n1-c1sc3c(c1C(c1ccccc1Cl)=NC21CC1)C[C@H](C(=O)N1CCOCC1)C3` [Example 119, (13′S)-9′-(2-chlorophenyl)-3′-ethyl-13′-(morpholine-4-carbonyl)-16′-thia-2′,4′,5′,8′-tetraazaspiro[cyclopropane-1,7′-tetracyclo[8.6.0.0^2,6.0^11,15]hexadecane]-1′(10′),3′,5′,8′,11′(15′)-pentaene] has a pIC50 of 7.82. `Cc1nnc2n1-c1sc3c(c1C(c1ccccc1)=NC21CC1)C[C@H](C(=O)N1CCOCC1)C3` [Example 120, (13′S)-3′-methyl-13′-(morpholine-4-carbonyl)-9′-phenyl-16′-thia-2′,4′,5′,8′-tetraazaspiro[cyclopropane-1,7′-tetracyclo[8.6.0.0^2,6.0^11,15]hexadecane]-1′(10′),3′,5′,8′,11′(15′)-pentaene] showed a pIC50 of 7.85. Molecule `Cc1nnc2n1-c1sc3c(c1C(c1ccccc1Cl)=NC21CC1)C[C@H](C(=O)NC1CCCS(=O)(=O)C1)C3` (stereo partly drawn) [Example 121, (13′S)-9′-(2-chlorophenyl)-N-(1,1-dioxo-1lambda6-thian-3-yl)-3′-methyl-16′-thia-2′,4′,5′,8′-tetraazaspiro[cyclopropane-1,7′-tetra-cyclo[8.6.0.0^2,6.0^11,15]hexadecane]-1′(10′),3′,5′,8′,11′(15′)-pentaene-13′-carboxamide] has a pIC50 of 7.52. In the case of `Cc1nnc2n1-c1sc3c(c1C(c1ccccc1Cl)=NC21CC1)C[C@H](C(=O)NC1(C(C)(C)O)CC1)C3` [Example 122, (13′S)-9′-(2-chlorophenyl)-N-[1-(2-hydroxy-propan-2-yl)cyclopropyl]-3′-methyl-16′-thia-2′,4′,5′,8′-tetraazaspiro[cyclopropane-1,7′-tetracyclo[8.6.0.0^2,6.0^11,15]hexadecane]-1′(10′),3′,5′,8′,11′(15′)-pentaene-13′-carboxamide], the pIC50 was 7.43. Molecule `Cc1nnc2n1-c1sc3c(c1C(c1ccccc1Cl)=NC21CC1)C[C@H](C(=O)N1C[C@@H](C)O[C@H](C)C1)C3` [Example 123, (13′S)-9′-(2-chlorophenyl)-13′-[(2R,6R)-2,6-dimethylmorpholine-4-carbonyl]-3′-methyl-16′-thia-2′,4′,5′,8′-tetraazaspiro[cyclopropane-1,7′-tetracyclo[8.6.0.02,6.011,15]hexadecane]-1′(10′),3′,5′,8′,11′(15′)-pentaene] has a pIC50 of 8.30. In the case of `Cc1nnc2n1-c1sc3c(c1C(c1ccccc1Cl)=NC21CC1)C[C@H](C(=O)N[C@@H](C)CF)C3` [Example 125], the pIC50 was 8.24. `Cc1nnc2n1-c1sc3c(c1C(c1ccccc1Cl)=NC21CC1)C[C@H](C(=O)N1CC2(CCCO2)C1)C3` [Example 126, (13′S)-9′-(2-chlorophenyl)-3′-methyl-13′-{5-oxa-2-azaspiro[3.4]octane-2-carbonyl}-16′-thia-2′,4′,5′,8′-tetraazaspiro[cyclopropane-1,7′-tetracyclo[8.6.0.0^2,6.0^11,15]hexadecane]-1′(10′),3′,5′,8′,11′(15′)-pentaene] gave a pIC50 of 8.03. In the case of `Cc1nnc2n1-c1sc3c(c1C(c1ccccc1Cl)=NC21CC1)C[C@H](C(=O)N1CCOCC12CC2)C3` [Example 127, (13′S)-9′-(2-chlorophenyl)-3′-methyl-13′-{7-oxa-4-azaspiro[2.5]octane-4-carbonyl}-16′-thia-2′,4′,5′,8′-tetraazaspiro[cyclopropane-1,7′-tetracyclo[8.6.0.0^2,6.0^11,15]hexadecane]-1′(10′),3′,5′,8′,11′(15′)-pentaene], the pIC50 was 8.24. In the case of `Cc1noc(C)c1NC(=O)[C@@H]1Cc2sc3c(c2C1)C(c1ccccc1Cl)=NC1(CC1)c1nnc(C)n1-3` [Example 128], the pIC50 was 8.24. For `Cc1nnc2n1-c1sc3c(c1C(c1ccccc1Cl)=NC21CC1)C[C@H](C(=O)N1CCC(F)(F)CC1)C3` [Example 129, (13′S)-9′-(2-chlorophenyl)-13′-(4,4-difluoropiperidine-1-carbonyl)-3′-methyl-16′-thia-2′,4′,5′,8′-tetraazaspiro[cyclopropane-1,7′-tetracyclo[8.6.0.0^2,6.0^11,15]hexadecane]-1′(10′),3′,5′,8′,11′(15′)-pentaene], the pIC50 was 8.60. Molecule `COc1ccccc1C1=NC2(CC2)c2nnc(C)n2-c2sc3c(c21)C[C@H](C(=O)N1CCOCC1)C3` [Example 130, (13′S)-9′-(2-methoxyphenyl)-3′-methyl-13′-(morpholine-4-carbonyl)-16′-thia-2′,4′,5′,8′-tetraazaspiro[cyclopropane-1,7′-tetracyclo[8.6.0.0^2,6.0^11,15]hexadecane]-1′(10′),3′,5′,8′,11′(15′)-pentaene] has a pIC50 of 7.08.

Same assay, conditions: S-bepafant and its methylated derivatives in the above-mentioned assay
With `Cc1nnc2n1-c1sc3c(c1C(c1ccccc1Cl)=NC2)C[C@H](C(=O)N1CCOCC1)C3` [S-bepafant, reference compound] the pIC50 was 7.13. Molecule `Cc1nnc2n1-c1sc3c(c1C(c1ccccc1Cl)=N[C@H]2C)C[C@H](C(=O)N1CCOCC1)C3` [comparative example 1a, reference compound] has a pIC50 of 8.16. `Cc1nnc2n1-c1sc3c(c1C(c1ccccc1Cl)=N[C@@H]2C)C[C@H](C(=O)N1CCOCC1)C3` [comparative example 1b, reference compound] showed a pIC50 of less than 6.00.

Same assay, conditions: dedicated head-to-head comparison assay run: cyclopropylene vs di-methyl / cyclobutylene analogues
Molecule `Cc1nnc2n1-c1sc3c(c1C(c1ccccc1Cl)=NC21CC1)C[C@H](C(=O)N(C)[C@H]1CC[C@H](O)CC1)C3` [Example 112] has a pIC50 of 7.92. `Cc1noc(C)c1NC(=O)[C@@H]1Cc2sc3c(c2C1)C(c1ccccc1Cl)=NC1(CC1)c1nnc(C)n1-3` [Example 128] gave a pIC50 of 8.26. `Cc1nnc2n1-c1sc3c(c1C(c1ccccc1Cl)=NC21CC1)C[C@H](C(=O)N1CCC(F)(F)CC1)C3` [Example 129, (13′S)-9′-(2-chlorophenyl)-13′-(4,4-difluoropiperidine-1-carbonyl)-3′-methyl-16′-thia-2′,4′,5′,8′-tetraazaspiro[cyclopropane-1,7′-tetracyclo[8.6.0.0^2,6.0^11,15]hexadecane]-1′(10′),3′,5′,8′,11′(15′)-pentaene] gave a pIC50 of 8.59. Molecule `Cc1nnc2n1-c1sc3c(c1C(c1ccccc1Cl)=NC2(C)C)C[C@H](C(=O)N1CCOCC1)C3` [comparative example 1, reference compound] has a pIC50 of 7.05. In the case of `Cc1nnc2n1-c1sc3c(c1C(c1ccccc1Cl)=NC21CCC1)C[C@H](C(=O)N1CCOCC1)C3` [comparative example 2, reference compound], the pIC50 was 7.23. In the case of `Cc1nnc2n1-c1sc3c(c1C(c1ccccc1Cl)=NC2(C)C)C[C@H](C(=O)NC1CCC1)C3` [reference compound], the pIC50 was 8.12. `Cc1nnc2n1-c1sc3c(c1C(c1ccccc1Cl)=NC2(C)C)C[C@H](C(=O)NC1CCOCC1)C3` [reference compound] gave a pIC50 of 7.19. With `Cc1nnc2n1-c1sc3c(c1C(c1ccccc1Cl)=NC2(C)C)C[C@H](C(=O)NC1CCc2cc(F)ccc21)C3` (stereo partly drawn) [reference compound] the pIC50 was 8.31. `CCCNC(=O)[C@@H]1Cc2sc3c(c2C1)C(c1ccccc1Cl)=NC(C)(C)c1nnc(C)n1-3` [reference compound] showed a pIC50 of 7.54. With `Cc1nnc2n1-c1sc3c(c1C(c1ccccc1Cl)=NC2(C)C)C[C@H](C(=O)NC1(c2ccccn2)CC1)C3` [reference compound] the pIC50 was 7.59. In the case of `Cc1nnc2n1-c1sc3c(c1C(c1ccccc1Cl)=NC2(C)C)C[C@H](C(=O)N(C)[C@H]1CC[C@H](O)CC1)C3` [reference compound], the pIC50 was 7.06. For `Cc1nnc2n1-c1sc3c(c1C(c1ccccc1Cl)=NC2(C)C)C[C@H](C(=O)N[C@@H]1CCC(F)(F)C1)C3` [reference compound], the pIC50 was 8.11. For `Cc1noc(C)c1NC(=O)[C@@H]1Cc2sc3c(c2C1)C(c1ccccc1Cl)=NC(C)(C)c1nnc(C)n1-3` [reference compound], the pIC50 was 7.41. For `Cc1nnc2n1-c1sc3c(c1C(c1ccccc1Cl)=NC2(C)C)C[C@H](C(=O)N1CCC(F)(F)CC1)C3` [reference compound], the pIC50 was 7.52.

Reference: patent US11992494B2, “Cyclopentathiophene carboxamide derivatives as platelet activating factor receptor antagonists” (Boehringer Ingelheim International GmbH, priority 2021, dated 2024)
